This note sets out measurements from PubChem BioAssay (NCI).

Test systems include KM12 colon; HL-60(TB) leukemia; IGROV1 ovarian; UO-31 renal; SR leukemia; PC-3 prostate; OVCAR-3 ovarian; SF-268 CNS; OVCAR-8 ovarian; NCI/ADR-RES ovarian.
Assay in all cases: NCI-60 cell line screen, 48 h

Structures are written as SMILES.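 Five compound concentrations were applied to cells in 96-well plates for 48 hours; endpoints were derived by simple linear interpolation of the resulting dose-response curve. TGI: concentration producing complete growth inhibition.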 A value given as a limit tells only on which side of the number the result lay.

Consider `CC(=O)Oc1ccc2cc(Oc3ccc(Cl)cc3)c(=O)oc2c1`, for which the TGI was over 100 µM with KM12 colon; over 100 µM in the test with HL-60(TB) leukemia; over 100 µM with IGROV1 ovarian; over 100 µM in the test with UO-31 renal; over 100 µM in the test on SR leukemia; 78.7 µM in the test on PC-3 prostate. Further, the results for the TGI with OVCAR-3 ovarian, in the test with SF-268 CNS and in the test on OVCAR-8 ovarian were 57.8 µM, over 100 µM and 54 µM, respectively.

On to `O=C1/C(=C/c2ccccc2S)N=C(c2ccccc2)N1c1ccc2c(c1)Sc1cc(N3C(=O)/C(=C/c4ccccc4S)N=C3c3ccccc3)ccc1N2`, for which the TGI in the test with KM12 colon is over 100 µM; in the test with NCI/ADR-RES ovarian, over 100 µM; in the test with IGROV1 ovarian, 29.1 µM; with UO-31 renal, 29.9 µM; in the test with SR leukemia, 40.4 µM; in the test with PC-3 prostate, 46.9 µM. Besides, the TGI in the test on OVCAR-3 ovarian turned out to be 38.1 µM; with SF-268 CNS, 39.6 µM; in the test with OVCAR-8 ovarian, 43.1 µM.

Turning to `N#Cc1c(N)c(-c2ccc(Cl)cc2)c(F)c2ccccc12`, the TGI in the test with KM12 colon, in the test with NCI/ADR-RES ovarian, with IGROV1 ovarian, in the test with UO-31 renal, in the test on PC-3 prostate and with OVCAR-3 ovarian was over 100 µM each time. Also, the TGI with SF-268 CNS and in the test on OVCAR-8 ovarian was over 100 µM each time.

As for `Oc1c2cccc1Cc1cccc3c1OCCOCCOCCOCCOc1c(cccc1Cc1cccc(c1O)C3)C2`, the TGI in the test on KM12 colon, in the test on NCI/ADR-RES ovarian, in the test on IGROV1 ovarian, with UO-31 renal, with SR leukemia and in the test on PC-3 prostate was over 100 µM each time. The TGI with OVCAR-3 ovarian, with SF-268 CNS and with OVCAR-8 ovarian was over 100 µM each time.

Take `O=C1/C(=C/c2cccc(Oc3ccccc3)c2)N=C(c2ccccc2)N1c1nc2ccc(Sc3ccccc3)cc2[nH]1`: the TGI in the test with KM12 colon was over 100 µM; in the test on NCI/ADR-RES ovarian, 50.4 µM; in the test on HL-60(TB) leukemia, 49.9 µM; in the test on IGROV1 ovarian it was over 100 µM; with UO-31 renal, over 100 µM; in the test on PC-3 prostate, over 100 µM. The TGI in the test on OVCAR-3 ovarian was 47.7 µM; in the test on SF-268 CNS, over 100 µM; with OVCAR-8 ovarian it was over 100 µM.

Turning to `O=C1NC(=O)/C(=C\c2ccncc2)N1`, the TGI in the test with KM12 colon, in the test with NCI/ADR-RES ovarian, with IGROV1 ovarian, in the test on UO-31 renal, in the test with PC-3 prostate and in the test with OVCAR-3 ovarian was over 100 µM throughout. In the test with OVCAR-8 ovarian, the TGI was over 100 µM.

For `CC1=NNC(N)=N/C1=C/C(Sc1ccc(Cl)cc1)c1cccs1` (stereo not given), the TGI is 23.1 µM with KM12 colon; over 100 µM in the test with NCI/ADR-RES ovarian; 29 µM in the test with IGROV1 ovarian; 17.7 µM in the test on UO-31 renal; 27.8 µM in the test on PC-3 prostate; 30.5 µM in the test with SF-268 CNS. Moreover, the TGI in the test with OVCAR-8 ovarian amounted to 57.2 µM.

In the case of `Cc1ccc(-c2cc(-c3ccc(Cl)cc3)nc(/N=C3\C(=O)N(CN4CCCCC4)c4ccc(Cl)cc43)n2)cc1`, the TGI with KM12 colon was 35.4 µM; in the test with NCI/ADR-RES ovarian, 62.4 µM; in the test with HL-60(TB) leukemia it was 62.4 µM; in the test with IGROV1 ovarian, 34.2 µM; in the test with PC-3 prostate, over 100 µM; in the test on OVCAR-3 ovarian it was over 100 µM. Moreover, the figures for the TGI in the test on SF-268 CNS and in the test on OVCAR-8 ovarian were 40.3 µM and 38.8 µM, respectively.

For the compound `Cn1c(N)c(/C=N/NC(=O)CC#N)c(=O)n(C)c1=O`, the TGI in the test on KM12 colon, with NCI/ADR-RES ovarian, with IGROV1 ovarian, in the test on UO-31 renal, in the test with SR leukemia and in the test with PC-3 prostate was over 100 µM throughout. Besides, the TGI in the test with OVCAR-3 ovarian, in the test on SF-268 CNS and with OVCAR-8 ovarian was over 100 µM throughout.

`O=[N+]([O-])c1ccc2nc3ccc([N+](=O)[O-])cn3c2c1`: the TGI in the test on KM12 colon, with NCI/ADR-RES ovarian, in the test with HL-60(TB) leukemia, in the test with IGROV1 ovarian, with UO-31 renal and in the test on SR leukemia was over 100 µM in each case. For the same compound, the TGI in the test on PC-3 prostate, in the test with SF-268 CNS and in the test with OVCAR-8 ovarian was over 100 µM in each case.

For the compound `O=C1CSC2(CC(/C=C/C=C/c3ccccc3)=NN2c2cccc(S(=O)(=O)O)c2)N1c1nc2ccccc2s1` (stereo not given), the TGI in the test with KM12 colon was over 100 µM; in the test with NCI/ADR-RES ovarian, over 100 µM; with HL-60(TB) leukemia, over 100 µM; in the test on IGROV1 ovarian, over 100 µM; in the test with UO-31 renal it was over 100 µM; in the test on SR leukemia, 60.1 µM. Further, the TGI in the test on PC-3 prostate and with OVCAR-8 ovarian was over 100 µM throughout.

With `O=C(C[C@@H]1NCCC[C@H]1O)Cn1cnc2cc(Br)c(Cl)cc2c1=O`, the TGI in the test with KM12 colon came to 0.101 µM; in the test with NCI/ADR-RES ovarian, 0.603 µM; in the test on IGROV1 ovarian, 0.158 µM; in the test with UO-31 renal, 0.422 µM; in the test with PC-3 prostate it was 1.4 µM; with OVCAR-3 ovarian it was 0.9 µM. Besides, the TGI with SF-268 CNS worked out at 0.61 µM; with OVCAR-8 ovarian it was 0.125 µM.

With `Cc1ccc(S(=O)(=O)Nn2c(-c3ccccc3)c(C#N)c(-c3ccc([N+](=O)[O-])cc3)c(C#N)c2=O)cc1`, the TGI in the test on KM12 colon, in the test on NCI/ADR-RES ovarian, in the test with HL-60(TB) leukemia, in the test with IGROV1 ovarian, in the test on PC-3 prostate and in the test with SF-268 CNS was over 100 µM throughout. The compound further came in with a TGI in the test on OVCAR-8 ovarian of over 100 µM.

For the compound `COc1ccc(N2C(=O)C3c4[nH]c5ccc(C)cc5c4C4CCC(C(C)C)CC4C3C2=O)cc1` (stereo not given), the TGI in the test with KM12 colon, with NCI/ADR-RES ovarian, in the test with IGROV1 ovarian, with UO-31 renal, in the test with SR leukemia and in the test with PC-3 prostate was over 100 µM in each case. In addition, the TGI in the test with OVCAR-3 ovarian, in the test on SF-268 CNS and with OVCAR-8 ovarian was over 100 µM each time.

In the case of `O=C1c2cc(Cl)ccc2-n2c(noc2=O)C2CSCN12` (stereo not given), the TGI in the test with KM12 colon, with NCI/ADR-RES ovarian, in the test on IGROV1 ovarian, with UO-31 renal, in the test with SR leukemia and with PC-3 prostate was over 100 µM each time. The TGI in the test with OVCAR-3 ovarian, in the test on SF-268 CNS and with OVCAR-8 ovarian was over 100 µM each time.
